# Measurements published in patent publication US20240246908A1 (ORION CORPORATION, priority 2021, published 2024).
# pIC50: −log10 of the molar value.
# Test system: YAP-TEAD
# Assay: TEAD inhibition, Hippo Pathway TEAD Reporter MCF-7 luciferase assay
# Assay type: cell-based
# Details: Homo sapiens, MCF7, 24 h, Hippo Pathway TEAD Reporter MCF-7 cells, luciferase activity after 24 h; read-out: IC50 of the test compounds on YAP-TEAD inhibition (Group)
# In short: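 MCF-7 cells carrying a TEAD-responsive firefly luciferase reporter, with nuclear YAP1 driving constitutive expression, were treated the day after plating with compounds (11 concentrations, 4 replicates; 0.1% DMSO control). After 24 h, luciferase was read by ONE-Glo luminescence and IC50 determined.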
row,Compound,pIC50
1,"COc1ccc(Oc2ccc(C(F)(F)F)cc2)cc1NC(=O)[C@@H]1COC(=O)N1C [Compound 102, (S)—N-(2-Methoxy-5-(4-(trifluoromethyl)phenoxy)phenyl)-3-methyl-2-oxooxazolidine-4-carboxamide]",> 7.30
2,"COc1ccc(O[C@H]2CC[C@H](C(F)(F)F)CC2)cc1NC(=O)[C@H]1CCC(=O)N1C [Compound 103, (R)—N-(2-Methoxy-5-(((trans)-4-(trifluoromethyl)cyclohexyl)oxy)phenyl)-1-methyl-5-oxopyrrolidine-2-carboxamide]",> 7.30
3,"COc1ccc(OC2CCC(F)(F)CC2)cc1NC(=O)C1COC(=O)N1C (centres unmarked) [Compound 104, N-(5-((4,4-Difluorocyclohexyl)oxy)-2-methoxyphenyl)-3-methyl-2-oxo-oxazolidine-4-carboxamide]",6.52 to 7.30
4,"COc1ccc(O[C@H]2CC[C@H](C(F)(F)F)CC2)cc1NC(=O)[C@@H]1CCC(=O)N1C [Compound 105, (S)—N-(2-Methoxy-5-(((trans)-4-(trifluoromethyl)cyclohexyl)oxy)phenyl)-1-methyl-5-oxopyrrolidine-2-carboxamide]",> 7.30
5,"CN1C(=O)CCC1C(=O)Nc1cc(Oc2cccc(C(F)(F)F)c2)cc2c1NC(=O)CO2 (centres unmarked) [Compound 106, 1-Methyl-5-oxo-N-(3-oxo-7-(3-(trifluoromethyl)phenoxy)-3,4-dihydro-2H-benzo[b][1,4]oxazin-5-yl)pyrrolidine-2-carboxamide]",5.70 to 6.52
6,"CN1C(=O)CC[C@H]1C(=O)Nc1cc(O[C@H]2CC[C@@H](C(F)(F)F)CC2)cc2c1OCC2 [Compound 107, (S)-1-Methyl-5-oxo-N-(5-(((cis)-4-(trifluoromethyl)cyclohexyl)oxy)-2,3-dihydrobenzofuran-7-yl)pyrrolidine-2-carboxamide]",> 7.30
7,"CN1C(=O)CC[C@@H]1C(=O)Nc1cc(O[C@H]2CC[C@@H](C(F)(F)F)CC2)cc2c1OCC2 [Compound 108, (R)-1-Methyl-5-oxo-N-(5-(((cis)-4-(trifluoromethyl)cyclohexyl)oxy)-2,3-dihydrobenzofuran-7-yl)pyrrolidine-2-carboxamide]",6.52 to 7.30
8,"O=C(Nc1cc(Oc2ccc(C(F)(F)F)cc2)cc2c1OCC2)C1CCC(=O)N1C1CC1 (centres unmarked) [Compound 109, 1-Cyclopropyl-5-oxo-N-(5-(4-(trifluoromethyl)phenoxy)-2,3-dihydro-benzofuran-7-yl)pyrrolidine-2-carboxamide]",> 7.30
9,"COc1ccc(Oc2ccc(C(F)(F)F)cc2)cc1NC(=O)C1CCC(=O)N1C1CC1 (centres unmarked) [Compound 110, 1-Cyclopropyl-N-(2-methoxy-5-(4-(trifluoromethyl)phenoxy)phenyl)-5-oxo-pyrrolidine-2-carboxamide]",> 7.30
10,"COc1ccc(Oc2ccc(F)c(F)c2)cc1NC(=O)C1CCC(=O)N1C1CC1 (centres unmarked) [Compound 111, 1-Cyclopropyl-N-(5-(3,4-difluorophenoxy)-2-methoxyphenyl)-5-oxopyrrolidine-2-carboxamide]",6.52 to 7.30
11,"COc1ccc(Oc2ccc(OC(F)(F)F)cn2)cc1NC(=O)C1COC(=O)N1C (centres unmarked) [Compound 112, N-(2-Methoxy-5-((5-(trifluoromethoxy)pyridin-2-yl)oxy)phenyl)-3-methyl-2-oxooxazolidine-4-carboxamide]",6.52 to 7.30
12,"CN1C(=O)CCC1C(=O)Nc1cc(COC2CCC(F)(F)CC2)cc2c1OCCO2 (centres unmarked) [Compound 113, N-(7-(((4,4-Difluorocyclohexyl)oxy)methyl)-2,3-dihydrobenzo[b][1,4]dioxin-5-yl)-1-methyl-5-oxopyrrolidine-2-carboxamide]",5.70 to 6.52
13,"O=C(Nc1cc(Oc2ccc(C(F)(F)F)cc2)cc2c1OCCO2)C1CCC(=O)N1C1CC1 (centres unmarked) [Compound 114, 1-Cyclopropyl-5-oxo-N-(7-(4-(trifluoromethyl)phenoxy)-2,3-dihydrobenzo[b][1,4]dioxin-5-yl)pyrrolidine-2-carboxamide]",> 7.30
14,"COc1ccc(Oc2ccc(OC(F)(F)F)cn2)cc1NC(=O)C1CCC(=O)N1C (centres unmarked) [Compound 115, N-(2-Methoxy-5-((5-(trifluoromethoxy)pyridin-2-yl)oxy)phenyl)-1-methyl-5-oxopyrrolidine-2-carboxamide]",6.52 to 7.30
15,"COc1ccc(Oc2ccc(C(F)(F)F)cc2)cc1NC(=O)C1CCS(=O)(=O)C1 (centres unmarked) [Compound 116, N-(2-Methoxy-5-(4-(trifluoromethyl)phenoxy)phenyl)tetrahydrothiophene-3-carboxamide 1,1-dioxide]",6.52 to 7.30
16,"COc1ccc(Oc2ccc(C(F)(F)F)cc2)cc1NC(=O)C1CNC(=O)N1C (centres unmarked) [Compound 117, N-(2-Methoxy-5-(4-(trifluoromethyl)phenoxy)phenyl)-3-methyl-2-oxo-imidazolidine-4-carboxamide]",> 7.30
17,"COc1ccc(Oc2ccc(C(F)(F)F)cn2)cc1NC(=O)C1CNC(=O)N1C (centres unmarked) [Compound 118, N-(2-Methoxy-5-((5-(trifluoromethyl)pyridin-2-yl)oxy)phenyl)-3-methyl-2-oxoimidazolidine-4-carboxamide]",> 7.30
18,"COc1ccc(Oc2ccc(C(F)(F)F)cc2)cc1NC(=O)[C@H]1CCC(=O)NC1 [Compound 119, (S)—N-(2-Methoxy-5-(4-(trifluoromethyl)phenoxy)phenyl)-6-oxopiperidine-3-carboxamide]",> 7.30
19,"COc1ccc(Oc2ccc(C(F)(F)F)cc2)cc1NC(=O)[C@@H]1CCC(=O)NC1 [Compound 120, (R)—N-(2-Methoxy-5-(4-(trifluoromethyl)phenoxy)phenyl)-6-oxopiperidine-3-carboxamide]",5.70 to 6.52
20,"COc1ccc(Oc2ccc(C(F)(F)F)cc2)cc1NC(=O)C1(C)CCC(=O)NC1 (centres unmarked) [Compound 121, N-(2-Methoxy-5-(4-(trifluoromethyl)phenoxy)phenyl)-3-methyl-6-oxo-piperidine-3-carboxamide]",5.70 to 6.52
21,"COc1ccc(Oc2ccc(C(F)(F)F)cc2)cc1NC(=O)c1ccc(=O)[nH]c1 [Compound 122, N-(2-Methoxy-5-(4-(trifluoromethyl)phenoxy)phenyl)-6-oxo-1,6-dihydro-pyridine-3-carboxamide]",5.70 to 6.52
22,"COc1ccc(Oc2ccc(C(F)(F)F)cn2)cc1NC(=O)C1(C)CNC(=O)N1C (centres unmarked) [Compound 123, N-(2-Methoxy-5-((5-(trifluoromethyl)pyridin-2-yl)oxy)phenyl)-3,4-dimethyl-2-oxoimidazolidine-4-carboxamide]",5.70 to 6.52
23,"COc1ccc(Oc2ccc(C(F)(F)F)cn2)cc1NC(=O)[C@H]1CNC(=O)N1C [Compound 124, (R)—N-(2-Methoxy-5-((5-(trifluoromethyl)pyridin-2-yl)oxy)phenyl)-3-methyl-2-oxoimidazolidine-4-carboxamide]",5.70 to 6.52
24,"COc1ccc(Oc2ccc(C(F)(F)F)cn2)cc1NC(=O)[C@@H]1COC(=O)N1C [Compound 125, (S)—N-(2-Methoxy-5-((5-(trifluoromethyl)pyridin-2-yl)oxy)phenyl)-3-methyl-2-oxooxazolidine-4-carboxamide]",6.52 to 7.30
25,"COc1ccc(Oc2ccc(C(F)(F)F)cn2)cc1NC(=O)[C@H]1COC(=O)N1C [Compound 126, (R)—N-(2-Methoxy-5-((5-(trifluoromethyl)pyridin-2-yl)oxy)phenyl)-3-methyl-2-oxooxazolidine-4-carboxamide]",6.52 to 7.30
26,"CCN1C(=O)NCC1C(=O)Nc1cc(Oc2ccc(C(F)(F)F)cn2)ccc1OC (centres unmarked) [Compound 127, 3-Ethyl-N-(2-methoxy-5-((5-(trifluoromethyl)pyridin-2-yl)oxy)phenyl)-2-oxo-imidazolidine-4-carboxamide]",6.52 to 7.30
